Test results as given in PubChem BioAssay AID1259407 (Chemical Carcinogenesis Research Information System (CCRIS), 2018).
The source made the active and inactive calls. The rule behind the calls is not given here.

System: CCRIS mutagenicity, Ames/micronucleus/aberration tests
Test: CCRIS mutagenicity studies
[1] = Test System: AMES SALMONELLA TYPHIMURIUM, Strain/Indicator: TA97, Metabolic Activation: HAMSTER, LIVER, S-9, AROCLOR 1254 (10 OR 30%), Method: PREINCUBATION
[2] = Test System: AMES SALMONELLA TYPHIMURIUM, Strain/Indicator: TA97, Metabolic Activation: NONE, Method: PREINCUBATION
[3] = Test System: AMES SALMONELLA TYPHIMURIUM, Strain/Indicator: TA98, Metabolic Activation: NONE, Method: PREINCUBATION
[4] = Test System: AMES SALMONELLA TYPHIMURIUM, Strain/Indicator: TA100, Metabolic Activation: HAMSTER, LIVER, S-9, AROCLOR 1254 (10%), Method: PREINCUBATION
[5] = Test System: AMES SALMONELLA TYPHIMURIUM, Strain/Indicator: TA100, Metabolic Activation: HAMSTER, LIVER, S-9, AROCLOR 1254 (30%), Method: PREINCUBATION
[6] = Test System: AMES SALMONELLA TYPHIMURIUM, Strain/Indicator: TA100, Metabolic Activation: NONE, Method: PREINCUBATION
[7] = Test System: AMES SALMONELLA TYPHIMURIUM, Strain/Indicator: TA100, Metabolic Activation: RAT, LIVER, S-9, AROCLOR 1254 (10%), Method: PREINCUBATION
[8] = Test System: AMES SALMONELLA TYPHIMURIUM, Strain/Indicator: TA100, Metabolic Activation: RAT, LIVER, S-9, AROCLOR 1254 (30%), Method: PREINCUBATION
[9] = Test System: AMES SALMONELLA TYPHIMURIUM, Strain/Indicator: TA1535, Metabolic Activation: NONE, Method: PREINCUBATION
[10] = Test System: AMES SALMONELLA TYPHIMURIUM, Strain/Indicator: TA100, Metabolic Activation: NONE, Method: STANDARD PLATE
[11] = Test System: AMES SALMONELLA TYPHIMURIUM, Strain/Indicator: TA98, Metabolic Activation: RAT, LIVER, S-9, AROCLOR 1254, Method: STANDARD PLATE

Cc1cc(=O)[nH]c(=S)[nH]1
mutagenic call [1]: inactive; negative
mutagenic call [2]: inactive; negative
mutagenic call (Test System: AMES SALMONELLA TYPHIMURIUM, Strain/Indicator: TA97, Metabolic Activation: RAT, LIVER, S-9, AROCLOR 1254 (10 OR 30%), Method: PREINCUBATION): inactive; negative
mutagenic call (Test System: AMES SALMONELLA TYPHIMURIUM, Strain/Indicator: TA98, Metabolic Activation: HAMSTER, LIVER, S-9, AROCLOR 1254 (10 OR 30%), Method: PREINCUBATION): inactive; negative
mutagenic call [3]: inactive; negative
mutagenic call (Test System: AMES SALMONELLA TYPHIMURIUM, Strain/Indicator: TA98, Metabolic Activation: RAT, LIVER, S-9, AROCLOR 1254 (10 OR 30%), Method: PREINCUBATION): inactive; negative
mutagenic call [4]: inactive; negative
mutagenic call [5]: inactive; negative
mutagenic call [6]: inactive; negative
mutagenic call [7]: inactive; negative
mutagenic call [8]: inactive; negative
mutagenic call (Test System: AMES SALMONELLA TYPHIMURIUM, Strain/Indicator: TA1535, Metabolic Activation: HAMSTER, LIVER, S-9, AROCLOR 1254 (10 OR 30%), Method: PREINCUBATION): inactive; negative
mutagenic call [9]: inactive; negative
mutagenic call (Test System: AMES SALMONELLA TYPHIMURIUM, Strain/Indicator: TA1535, Metabolic Activation: RAT, LIVER, S-9, AROCLOR 1254 (10 OR 30%), Method: PREINCUBATION): inactive; negative

CCc1ccc(C)cc1
mutagenic call (Test System: AMES SALMONELLA TYPHIMURIUM, Strain/Indicator: TA97A, Metabolic Activation: NONE, Method: STANDARD PLATE): inactive; negative
mutagenic call (Test System: AMES SALMONELLA TYPHIMURIUM, Strain/Indicator: TA97A, Metabolic Activation: RAT LIVER S-9, AROCLOR 1254, Method: STANDARD PLATE): inactive; negative
mutagenic call (Test System: AMES SALMONELLA TYPHIMURIUM, Strain/Indicator: TA98, Metabolic Activation: NONE, Method: STANDARD PLATE): inactive; negative
mutagenic call (Test System: AMES SALMONELLA TYPHIMURIUM, Strain/Indicator: TA98, Metabolic Activation: RAT LIVER S-9, AROCLOR 1254, Method: STANDARD PLATE): inactive; negative
mutagenic call [10]: inactive; negative
mutagenic call (Test System: AMES SALMONELLA TYPHIMURIUM, Strain/Indicator: TA100, Metabolic Activation: RAT LIVER S-9, AROCLOR 1254, Method: STANDARD PLATE): inactive; negative
mutagenic call (Test System: AMES SALMONELLA TYPHIMURIUM, Strain/Indicator: TA102, Metabolic Activation: NONE, Method: STANDARD PLATE): inactive; negative
mutagenic call (Test System: AMES SALMONELLA TYPHIMURIUM, Strain/Indicator: TA102, Metabolic Activation: RAT LIVER S-9, AROCLOR 1254, Method: STANDARD PLATE): inactive; negative

Oc1ccc(-c2ccccc2)cc1
mutagenic call [11]: active; positive
mutagenic call (Test System: AMES SALMONELLA TYPHIMURIUM, Strain/Indicator: TA1535, Metabolic Activation: RAT, LIVER, S-9, AROCLOR 1254, Method: STANDARD PLATE): inactive; negative

Clc1cc2c3ccccc3ccc2c2ccccc12
mutagenic call [11]: inactive; negative
mutagenic call (Test System: AMES SALMONELLA TYPHIMURIUM, Strain/Indicator: TA100, Metabolic Activation: RAT, LIVER, S-9, AROCLOR 1254, Method: STANDARD PLATE): active; positive

CC(C)[N+](C)(CCOC(=O)C1c2ccccc2Oc2ccccc21)C(C)C
mutagenic call (End Point: IN VITRO CHROMOSOMAL ABERRATIONS, Test System: CHINESE HAMSTER OVARY CELLS, Metabolic Activation: NONE): inactive; negative
mutagenic call (End Point: IN VITRO CHROMOSOMAL ABERRATIONS, Test System: CHINESE HAMSTER OVARY CELLS, Metabolic Activation: RAT, LIVER, S-9, AROCLOR 1254): inactive; negative
mutagenic call [1]: inactive; negative
mutagenic call [2]: inactive; negative
mutagenic call (Test System: AMES SALMONELLA TYPHIMURIUM, Strain/Indicator: TA97, Metabolic Activation: RAT, LIVER, S-9, AROCLOR 1254 (10%), Method: PREINCUBATION): inactive; negative
mutagenic call (Test System: AMES SALMONELLA TYPHIMURIUM, Strain/Indicator: TA97, Metabolic Activation: RAT, LIVER, S-9, AROCLOR 1254 (30%), Method: PREINCUBATION): inactive; negative
mutagenic call (Test System: AMES SALMONELLA TYPHIMURIUM, Strain/Indicator: TA98, Metabolic Activation: HAMSTER, LIVER, S-9, AROCLOR 1254 (10%), Method: PREINCUBATION): inactive; negative
mutagenic call (Test System: AMES SALMONELLA TYPHIMURIUM, Strain/Indicator: TA98, Metabolic Activation: HAMSTER, LIVER, S-9, AROCLOR 1254 (30%), Method: PREINCUBATION): inactive; negative
mutagenic call [3]: inactive; negative
mutagenic call (Test System: AMES SALMONELLA TYPHIMURIUM, Strain/Indicator: TA98, Metabolic Activation: RAT, LIVER, S-9, AROCLOR 1254 (10%), Method: PREINCUBATION): inactive; negative
mutagenic call (Test System: AMES SALMONELLA TYPHIMURIUM, Strain/Indicator: TA98, Metabolic Activation: RAT, LIVER, S-9, AROCLOR 1254 (30%), Method: PREINCUBATION): inactive; negative
mutagenic call [4]: inactive; negative
mutagenic call [5]: inactive; negative
mutagenic call [6]: inactive; negative
mutagenic call [7]: inactive; negative
mutagenic call [8]: inactive; negative
mutagenic call (Test System: AMES SALMONELLA TYPHIMURIUM, Strain/Indicator: TA1535, Metabolic Activation: HAMSTER, LIVER, S-9, AROCLOR 1254 (10%), Method: PREINCUBATION): inactive; negative
mutagenic call (Test System: AMES SALMONELLA TYPHIMURIUM, Strain/Indicator: TA1535, Metabolic Activation: HAMSTER, LIVER, S-9, AROCLOR 1254 (30%), Method: PREINCUBATION): inactive; negative
mutagenic call [9]: inactive; negative
mutagenic call (Test System: AMES SALMONELLA TYPHIMURIUM, Strain/Indicator: TA1535, Metabolic Activation: RAT, LIVER, S-9, AROCLOR 1254 (10%), Method: PREINCUBATION): inactive; negative
mutagenic call (Test System: AMES SALMONELLA TYPHIMURIUM, Strain/Indicator: TA1535, Metabolic Activation: RAT, LIVER, S-9, AROCLOR 1254 (30%), Method: PREINCUBATION): inactive; negative
mutagenic call (Test System: AMES SALMONELLA TYPHIMURIUM, Strain/Indicator: TA1537, Metabolic Activation: HAMSTER, LIVER, S-9, AROCLOR 1254 (10%), Method: PREINCUBATION): inactive; negative
mutagenic call (Test System: AMES SALMONELLA TYPHIMURIUM, Strain/Indicator: TA1537, Metabolic Activation: NONE, Method: PREINCUBATION): inactive; negative
mutagenic call (Test System: AMES SALMONELLA TYPHIMURIUM, Strain/Indicator: TA1537, Metabolic Activation: RAT, LIVER, S-9, AROCLOR 1254 (10%), Method: PREINCUBATION): inactive; negative

Cc1ccc2cc(C)c3c4c(ccc3c2c1)[C@H](O)[C@@H](O)[C@H]1O[C@@H]41
mutagenic call [10]: active; positive

COc1ccc2c(c1)c(CC(=O)OC(C)c1ccccc1)c(C)n2C(=O)c1ccc(Cl)cc1 (stereo unspecified)
mutagenic call (End Point: IN VITRO MICRONUCLEUS, Test System: CHL/IU CELLS, Metabolic Activation: NONE): active; positive

CC(=O)Nc1cccc(N)c1C(=O)O
mutagenic call [3]: inactive; negative
mutagenic call (Test System: AMES SALMONELLA TYPHIMURIUM, Strain/Indicator: TA98, Metabolic Activation: RAT, LIVER, S-9, PHENOBARBITAL AND 5,6-BENZOFLAVONE, Method: PREINCUBATION): active; positive
mutagenic call [6]: inactive; negative
mutagenic call (Test System: AMES SALMONELLA TYPHIMURIUM, Strain/Indicator: TA100, Metabolic Activation: RAT, LIVER, S-9, PHENOBARBITAL AND 5,6-BENZOFLAVONE, Method: PREINCUBATION): inactive; negative
